Experimental data: patent US20090233957A1, “(-)-BELOXEPIN AND METHODS FOR ITS SYNTHESIS AND USE” (priority 2008, published 2009)

Assays:
[1] = biological target: T1, cloned human 5HT2C receptor (Homo sapiens, UniProt P28335); test: 5HT2C functional assay, intracellular Ca2+ in CHO cells; type: cell-based
T1 construct: expressed in transfected cells; host or cells: CHO cells
T1 sequence (P28335 33-458): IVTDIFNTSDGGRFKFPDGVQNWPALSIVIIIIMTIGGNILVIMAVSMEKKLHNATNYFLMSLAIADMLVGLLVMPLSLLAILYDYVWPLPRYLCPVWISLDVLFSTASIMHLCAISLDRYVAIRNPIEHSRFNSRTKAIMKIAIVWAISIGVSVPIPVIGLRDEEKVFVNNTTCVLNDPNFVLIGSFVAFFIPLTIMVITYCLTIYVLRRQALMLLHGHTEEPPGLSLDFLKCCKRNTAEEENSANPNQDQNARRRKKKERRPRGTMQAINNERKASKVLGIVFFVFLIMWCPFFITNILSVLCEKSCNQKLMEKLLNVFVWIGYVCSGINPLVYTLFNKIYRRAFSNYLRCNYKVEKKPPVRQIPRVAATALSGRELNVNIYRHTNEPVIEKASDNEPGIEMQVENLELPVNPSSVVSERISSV
Procedure: Agonist effects at the 5HT2C receptor were assessed by incubation at 22° C. of a series of concentrations of test compound with intact CHO cells heterologously expressing the cloned human 5HT2C receptor and measuring intracellular [Ca^2+] by fluorimetry according to the method of Jerman et al., 2001, Eur. J. Pharmacol. 414:23-30. Antagonist effects were assessed by the ability of a series of concentrations of test compound to block the increase in intracellular [Ca^2+] that occurred in the presence of 3.0 nM serotonin under the same conditions. EC50 and IC50 values were determined using standard methods.

[2] = biological target: NET (rat hypothalamus synaptosomes) (Rattus norvegicus, UniProt Q63380); test: NE uptake inhibition assay, [3H]norepinephrine into synaptosomes; type: biochemical; details: 20 min 37° C., read-out: NET IC50 (norepinephrine reuptake inhibition)
Chain of NET (rat hypothalamus synaptosomes) (Q63380 1-617): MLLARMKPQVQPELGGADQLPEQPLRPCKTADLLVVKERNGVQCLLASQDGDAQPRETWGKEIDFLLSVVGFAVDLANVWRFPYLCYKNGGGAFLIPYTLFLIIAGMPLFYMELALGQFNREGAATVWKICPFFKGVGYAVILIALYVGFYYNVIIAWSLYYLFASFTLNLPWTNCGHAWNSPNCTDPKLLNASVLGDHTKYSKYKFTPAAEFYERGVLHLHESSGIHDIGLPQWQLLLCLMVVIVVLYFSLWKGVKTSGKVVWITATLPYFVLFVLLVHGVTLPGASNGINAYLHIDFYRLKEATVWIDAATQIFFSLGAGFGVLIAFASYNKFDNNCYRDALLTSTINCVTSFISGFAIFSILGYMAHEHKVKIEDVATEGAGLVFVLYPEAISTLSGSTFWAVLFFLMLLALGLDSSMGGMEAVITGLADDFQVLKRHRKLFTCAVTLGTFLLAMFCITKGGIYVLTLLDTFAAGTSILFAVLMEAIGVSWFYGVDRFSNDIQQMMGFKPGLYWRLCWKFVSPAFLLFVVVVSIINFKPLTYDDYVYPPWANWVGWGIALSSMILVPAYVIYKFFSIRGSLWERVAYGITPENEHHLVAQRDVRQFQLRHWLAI

[3] = test system: L5 SNL rats; test: L5 Single Nerve Ligation model of neuropathic pain, tactile allodynia (von Frey); type: in vivo, rat
Procedure: Protocol. The antiallodynic activity of (−)-beloxepin was tested in vivo using the L5—Single Nerve Ligation model of non-nociceptive neuropathic pain as described in LaBuda & Little, 2005, J. Neurosci. Methods 144:175-181. The test animals were placed in a Plexiglas chamber (10 cm×20 cm×25 cm) and habituated for 15 minutes. The chamber was positioned on top of a mesh screen so that von Frey monofilaments could be presented to the plantar surface of both hindpaws. Measurement of tactile sensitivity for each hind paw were obtained using the up/down method (Dixon, 1980, Annu. Rev. Pharmacol. Toxicol. 20:441-462) with seven Frey monofilaments (0.4, 1, 2, 4, 6, 8 and 15 grams). Each trial started with a von Frey force of 2 grams delivered to the right hind paw for approximately 1-2 seconds and then the left hind paw. If there was no withdrawal response, the next higher force was delivered. If there was a response, the next lower force was delivered. This procedure was performed until no response was made at the highest force (15 grams) or until four stimuli were administered following the initial response. The 50% paw withdrawal threshold for each paw was calculated using the following formula: [Xth]log=[vFr]log+ky, where [vFr] is the force of the last von Frey used, k=0.2249 which is the average interval (in log units) between the von Frey monofilaments, and y is a value that depends upon the pattern of withdrawal responses (Dixon, 1980, supra). […] Testing for tactile sensitivity was performed twice and the mean 50% withdrawal value assigned as the tactile sensitivity for the right and left paws for each animal.
Results. The antiallodynic effects produced by (−)-beloxepin (30 mg/kg IP) and (+)-beloxepin (30 mg/kg IP) in L5 SNL rats 8 days post surgery are illustrated in FIG. 1. In this experiment, at 8 days post surgery, rats were treated with vehicle or beloxepin enantiomers (30 mg/kg IP) and tested for tactile allodynia at 30 min post treatment. […] No side effects were observed following treatment with either enantiomer.
The antiallodynic effects produced by (−)-beloxepin (30 mg/kg IP) in L5 SNL rats 14 days post surgery are illustrated in FIG. 2. In this experiment, at 14 days post surgery, rats were treated with vehicle or (−)-beloxepin and tested for tactile allodynia at 30, 60, 120 and 240 min post treatment. Vehicle treated rats were tested at 30 min post treatment.
Protocol. A time course experiment was performed with (−)-beloxepin (60 mg/kg PO) in L5 SNL rats at 7 days post-surgery. Rats were tested at 30, 60, 120, and 240 minutes post-drug.
Protocol. A time course experiment was also performed with (+)-beloxepin (60 mg/kg PO) in L5 SNL rats at 14 days post-surgery. Rats were tested at 30, 60, 120, and 240 minutes post-drug.

[4] = test system: rat 50° C. hot plate model; test: rat 50° C. hot plate assay; type: in vivo
Procedure: Protocol. Rats were treated with vehicle, 30 mg/kg IP of (−)-beloxepin, or 30 mg/kg IP of (+)-beloxepin and then were placed on a hot plate (50° C.) 30, 60, or 120 minutes after administration of the vehicle or beloxepin enantiomer. Rats treated with 3 mg/kg SC of morphine and tested 30 min post-treatment were used as a positive control in these experiments.

Cc1cccc2c1Oc1ccccc1C1(O)CCN(C)CC21 (single isomer, unassigned; (+)) [(+)-beloxepin]
5HT2C functional activity type [1]: antagonist
IC50 ([1]; antagonist mode, vs 3.0 nM serotonin): 7.2 µM
IC50 [2]: 1.2 µM
antiallodynic effect ([3]; 30 mg/kg IP, 8 days post surgery, 30 min post treatment): not statistically significant
antiallodynic effect ([3]; 60 mg/kg PO, 14 days post-surgery, tested 30, 60, 120, 240 min): did not produce significant antiallodynic effects at any time point
antinociceptive activity ([4]; 30 mg/kg IP, 30, 60, 120 min): no antinociception was observed
% MPE values (range) ([4]; 30 mg/kg IP, 30, 60 or 120 min): 10-17%
